According to ChEMBL document CHEMBL4376889, “Discovery of a Brain-Penetrant ATP-Competitive Inhibitor of the Mechanistic Target of Rapamycin (mTOR) for CNS Disorders” (J Med Chem, 2020):
Values after ≈ are worked out from the molar mass of the structure shown. Active and inactive are the calls of the source. No cut-off for these calls is given here.

Key:
[1] = Selectivity index, ratio of IC50 for DNAPK (unknown origin) to IC50 for inhibition of mTOR in mouse MEF cells harboring TSC1 deletion mutant; assay type: cell-based
[2] = molecular target: Serine/threonine-protein kinase mTOR (Rattus norvegicus, UniProt P42346, S2215F); experiment: Inhibition of mTOR S2215F mutant in rat primary cortical neuron assessed as reduction in PS6 phosphorylation incubated for 4 hrs by Western blot analysis (reference value: 19 nM)
[3] = molecular target: Serine/threonine-protein kinase mTOR (Rattus norvegicus, UniProt P42346, E2419K); experiment: Inhibition of mTOR E2419K mutant in rat primary cortical neuron assessed as reduction in PS6 phosphorylation incubated for 4 hrs by Western blot analysis (reference value: 19 nM)
Cortical neurone = experiment: Inhibition of oversizing of mouse primary cortical neuron harboring TSC1 deletion mutant at 200 nM incubated for 7 days by immunofluorescence assay; assay type: functional, cell-based; settings: 168 h
Mus musculus [4] = experiment: Protection against C57BL/6J mouse model of neuronal mTOR hyperactivity assessed as survival rate at 10 mg/kg, ip administered on postnatal day 22 daily and measured on postnatal day 36 (reference value: 48 %); assay type: functional
[5] = molecular target: Serine-protein kinase ATM (Homo sapiens, UniProt Q13315); experiment: Inhibition of ATM (unknown origin) assessed as reduction in CHK2 phosphorylation by cell based assay
[6] = molecular target: 1-phosphatidylinositol 3-phosphate 5-kinase (Homo sapiens) (UniProt Q9Y2I7); experiment: Inhibition of wild-type human partial length PIKFYVE (F1512 to C2098 residues) expressed in mammalian expression system at 10000 nM by Kinomescan method
Sequence of 1-phosphatidylinositol 3-phosphate 5-kinase (Homo sapiens) (Q9Y2I7 whole entry, the tested form may be a part): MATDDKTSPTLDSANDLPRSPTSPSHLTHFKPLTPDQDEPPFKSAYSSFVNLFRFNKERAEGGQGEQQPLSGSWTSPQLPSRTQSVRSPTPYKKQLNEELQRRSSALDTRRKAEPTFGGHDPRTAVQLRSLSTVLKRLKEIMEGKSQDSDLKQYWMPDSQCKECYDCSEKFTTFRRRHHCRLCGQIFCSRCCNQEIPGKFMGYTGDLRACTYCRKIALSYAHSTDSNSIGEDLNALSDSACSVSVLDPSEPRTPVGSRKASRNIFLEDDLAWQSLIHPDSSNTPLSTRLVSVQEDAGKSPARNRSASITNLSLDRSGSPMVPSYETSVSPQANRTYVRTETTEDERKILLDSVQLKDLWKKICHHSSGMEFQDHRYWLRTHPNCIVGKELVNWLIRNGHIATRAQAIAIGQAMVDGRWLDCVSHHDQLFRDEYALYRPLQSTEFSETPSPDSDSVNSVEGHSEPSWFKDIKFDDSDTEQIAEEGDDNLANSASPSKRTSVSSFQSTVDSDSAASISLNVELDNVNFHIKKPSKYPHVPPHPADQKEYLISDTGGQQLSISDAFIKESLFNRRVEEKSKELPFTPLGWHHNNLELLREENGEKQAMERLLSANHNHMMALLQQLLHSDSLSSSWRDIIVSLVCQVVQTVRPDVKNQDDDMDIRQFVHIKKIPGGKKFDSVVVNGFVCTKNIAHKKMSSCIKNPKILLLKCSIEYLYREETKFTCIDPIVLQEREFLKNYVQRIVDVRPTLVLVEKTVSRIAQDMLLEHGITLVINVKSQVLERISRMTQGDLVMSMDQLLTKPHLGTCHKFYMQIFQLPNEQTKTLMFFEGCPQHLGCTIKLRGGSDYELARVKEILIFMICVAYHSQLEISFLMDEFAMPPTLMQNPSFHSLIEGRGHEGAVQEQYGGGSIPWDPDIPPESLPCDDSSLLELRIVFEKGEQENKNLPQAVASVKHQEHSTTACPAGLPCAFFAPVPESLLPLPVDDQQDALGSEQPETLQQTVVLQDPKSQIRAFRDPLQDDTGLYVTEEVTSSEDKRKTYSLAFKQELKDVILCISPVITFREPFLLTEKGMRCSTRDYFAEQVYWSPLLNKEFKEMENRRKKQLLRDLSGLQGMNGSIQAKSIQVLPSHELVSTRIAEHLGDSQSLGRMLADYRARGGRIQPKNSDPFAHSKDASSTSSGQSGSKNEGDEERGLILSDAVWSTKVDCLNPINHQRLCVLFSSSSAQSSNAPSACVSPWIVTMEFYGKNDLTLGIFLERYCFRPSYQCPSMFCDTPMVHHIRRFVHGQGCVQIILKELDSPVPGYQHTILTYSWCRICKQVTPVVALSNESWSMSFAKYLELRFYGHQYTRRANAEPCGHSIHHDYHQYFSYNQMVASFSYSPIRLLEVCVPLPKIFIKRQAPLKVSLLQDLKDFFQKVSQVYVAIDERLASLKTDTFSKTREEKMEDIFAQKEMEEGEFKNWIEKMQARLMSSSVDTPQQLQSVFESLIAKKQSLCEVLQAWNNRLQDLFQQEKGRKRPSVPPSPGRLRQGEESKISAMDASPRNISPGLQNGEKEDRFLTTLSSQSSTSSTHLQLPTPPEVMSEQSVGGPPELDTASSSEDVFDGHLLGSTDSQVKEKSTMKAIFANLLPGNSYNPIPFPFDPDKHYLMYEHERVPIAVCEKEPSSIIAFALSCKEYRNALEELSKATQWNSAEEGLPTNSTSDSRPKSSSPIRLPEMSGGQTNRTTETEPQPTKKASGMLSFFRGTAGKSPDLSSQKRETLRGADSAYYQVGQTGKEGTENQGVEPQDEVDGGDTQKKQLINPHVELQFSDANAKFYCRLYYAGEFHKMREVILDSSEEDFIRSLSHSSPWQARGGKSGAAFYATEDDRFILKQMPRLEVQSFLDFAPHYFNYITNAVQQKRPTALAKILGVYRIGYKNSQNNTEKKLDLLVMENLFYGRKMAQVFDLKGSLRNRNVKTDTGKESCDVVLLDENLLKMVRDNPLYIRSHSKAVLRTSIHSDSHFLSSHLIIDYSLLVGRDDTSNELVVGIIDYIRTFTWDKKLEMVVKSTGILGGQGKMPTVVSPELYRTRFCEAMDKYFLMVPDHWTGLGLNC

[7] = molecular target: Serine/threonine-protein kinase mTOR (Mus musculus, UniProt Q9JLN9); experiment: Inhibition of mTOR in mouse MEF cells harboring TSC1 deletion mutant assessed as reduction in PS6 phosphorylation incuabted for 2 hrs alexa fluor 594 and Hoechst staining based fluorescence assay; assay type: cell-based
[8] = Protein binding in C57BL/6 mouse plasma at 5 uM incubated for 4 hrs by LC-MS/MS analysis; assay type: ADME, cell-free; settings: read-out: PPB
Mus musculus [9] = experiment: Protection against C57BL/6J mouse model of neuronal mTOR hyperactivity assessed as survival rate at 10 mg/kg, ip administered on postnatal day 22 daily and measured on postnatal day 52 (reference value: 48 %); assay type: functional
[10] = Cmax in C57BL/6 mouse at 1 mg/kg, iv or 5 mg/kg, po by HPLC analysis; assay type: ADME, organism-based; settings: in vivo
[11] = Ratio of drug concentration in brain to plasma in C57BL/6J mouse at 10 mg/kg, po incubated for 3 hrs by LC-MS/MS analysis; assay type: ADME, organism-based; settings: read-out: BPR
Cytochrome P450 2C9 = Cytochrome P450 2C9 (Homo sapiens, UniProt P11712); experiment: Inhibition of CYP2C9 (unknown origin); assay type: ADME
[12] = Protein binding in Sprague-Dawley rat plasma at 5 uM incubated for 4 hrs by LC-MS/MS analysis; assay type: ADME, cell-free; settings: read-out: PPB (converted)
[13] = Drug uptake in C57BL/6J mouse brain at 1 mg/kg, po incubated for 3 hrs by LC-MS/MS analysis; assay type: ADME, organism-based; settings: read-out: Drug uptake
MDR1 = experiment: Efflux ratio of permeability from basolateral to apical over apical to basolateral side in MDCK-MDR1 cells; assay type: ADME, cell-based, Canis lupus familiaris; settings: dog
[14] = Tmax in C57BL/6 mouse at 1 mg/kg, iv or 5 mg/kg, po by HPLC analysis; assay type: ADME, organism-based; settings: in vivo
[15] = Volume of distribution at steady state in Sprague-Dawley rat at 1 mg/kg, iv or 3 mg/kg, po by HPLC analysis; assay type: ADME, organism-based; settings: in vivo, read-out: Vdss
[16] = Ratio of drug concentration in brain to plasma in C57BL/6J mouse at 1 mg/kg, po incubated for 3 hrs by LC-MS/MS analysis; assay type: ADME, organism-based; settings: read-out: BPR
[17] = Solubility of compound at pH 6.8; assay type: physicochemical; settings: buffer
[18] = Oral bioavailability in Sprague-Dawley rat at 3 mg/kg by HPLC analysis; assay type: ADME, organism-based; settings: in vivo
[19] = molecular target: Phosphatidylinositol 4,5-bisphosphate 3-kinase catalytic subunit alpha isoform (Homo sapiens, UniProt P42336); experiment: Inhibition of PI3Kalpha (unknown origin)
[20] = Cmax in Sprague-Dawley rat at 1 mg/kg, iv or 3 mg/kg, po by HPLC analysis; assay type: ADME, organism-based; settings: in vivo
[21] = MRT (0 to t) in C57BL/6 mouse at 1 mg/kg, iv or 5 mg/kg, po by HPLC analysis; assay type: ADME, organism-based; settings: in vivo
[22] = Clearance in C57BL/6 mouse at 1 mg/kg, iv or 5 mg/kg, po by HPLC analysis; assay type: ADME, organism-based; settings: in vivo
[23] = AUC (0 to t) in C57BL/6 mouse at 5 mg/kg, po by HPLC analysis; assay type: ADME, organism-based; settings: in vivo
[24] = molecular target: Serine/threonine-protein kinase ATR (Homo sapiens, UniProt Q13535); experiment: Inhibition of ATR (unknown origin) assessed as reduction in CHK1 phosphorylation by cell based assay
Mus musculus [25] = experiment: In vivo inhibition of mTOR pathway in C57BL/6J mouse assessed as reduction in mTORC1/mTORC2 complex by measuring AKT phosphorylation level at 1 to 10 mg/kg, po measured after 8 hrs by Western blot analysis; assay type: functional, organism-based
[26] = molecular target: Myosin light chain kinase, smooth muscle (Homo sapiens) (UniProt Q15746); experiment: Inhibition of wild-type human […] MYLK (M854 to E1845 residues) expressed in mammalian expression system at 10000 nM by Kinomescan method
Sequence of Myosin light chain kinase, smooth muscle (Homo sapiens) (Q15746 whole entry, the tested form may be a part): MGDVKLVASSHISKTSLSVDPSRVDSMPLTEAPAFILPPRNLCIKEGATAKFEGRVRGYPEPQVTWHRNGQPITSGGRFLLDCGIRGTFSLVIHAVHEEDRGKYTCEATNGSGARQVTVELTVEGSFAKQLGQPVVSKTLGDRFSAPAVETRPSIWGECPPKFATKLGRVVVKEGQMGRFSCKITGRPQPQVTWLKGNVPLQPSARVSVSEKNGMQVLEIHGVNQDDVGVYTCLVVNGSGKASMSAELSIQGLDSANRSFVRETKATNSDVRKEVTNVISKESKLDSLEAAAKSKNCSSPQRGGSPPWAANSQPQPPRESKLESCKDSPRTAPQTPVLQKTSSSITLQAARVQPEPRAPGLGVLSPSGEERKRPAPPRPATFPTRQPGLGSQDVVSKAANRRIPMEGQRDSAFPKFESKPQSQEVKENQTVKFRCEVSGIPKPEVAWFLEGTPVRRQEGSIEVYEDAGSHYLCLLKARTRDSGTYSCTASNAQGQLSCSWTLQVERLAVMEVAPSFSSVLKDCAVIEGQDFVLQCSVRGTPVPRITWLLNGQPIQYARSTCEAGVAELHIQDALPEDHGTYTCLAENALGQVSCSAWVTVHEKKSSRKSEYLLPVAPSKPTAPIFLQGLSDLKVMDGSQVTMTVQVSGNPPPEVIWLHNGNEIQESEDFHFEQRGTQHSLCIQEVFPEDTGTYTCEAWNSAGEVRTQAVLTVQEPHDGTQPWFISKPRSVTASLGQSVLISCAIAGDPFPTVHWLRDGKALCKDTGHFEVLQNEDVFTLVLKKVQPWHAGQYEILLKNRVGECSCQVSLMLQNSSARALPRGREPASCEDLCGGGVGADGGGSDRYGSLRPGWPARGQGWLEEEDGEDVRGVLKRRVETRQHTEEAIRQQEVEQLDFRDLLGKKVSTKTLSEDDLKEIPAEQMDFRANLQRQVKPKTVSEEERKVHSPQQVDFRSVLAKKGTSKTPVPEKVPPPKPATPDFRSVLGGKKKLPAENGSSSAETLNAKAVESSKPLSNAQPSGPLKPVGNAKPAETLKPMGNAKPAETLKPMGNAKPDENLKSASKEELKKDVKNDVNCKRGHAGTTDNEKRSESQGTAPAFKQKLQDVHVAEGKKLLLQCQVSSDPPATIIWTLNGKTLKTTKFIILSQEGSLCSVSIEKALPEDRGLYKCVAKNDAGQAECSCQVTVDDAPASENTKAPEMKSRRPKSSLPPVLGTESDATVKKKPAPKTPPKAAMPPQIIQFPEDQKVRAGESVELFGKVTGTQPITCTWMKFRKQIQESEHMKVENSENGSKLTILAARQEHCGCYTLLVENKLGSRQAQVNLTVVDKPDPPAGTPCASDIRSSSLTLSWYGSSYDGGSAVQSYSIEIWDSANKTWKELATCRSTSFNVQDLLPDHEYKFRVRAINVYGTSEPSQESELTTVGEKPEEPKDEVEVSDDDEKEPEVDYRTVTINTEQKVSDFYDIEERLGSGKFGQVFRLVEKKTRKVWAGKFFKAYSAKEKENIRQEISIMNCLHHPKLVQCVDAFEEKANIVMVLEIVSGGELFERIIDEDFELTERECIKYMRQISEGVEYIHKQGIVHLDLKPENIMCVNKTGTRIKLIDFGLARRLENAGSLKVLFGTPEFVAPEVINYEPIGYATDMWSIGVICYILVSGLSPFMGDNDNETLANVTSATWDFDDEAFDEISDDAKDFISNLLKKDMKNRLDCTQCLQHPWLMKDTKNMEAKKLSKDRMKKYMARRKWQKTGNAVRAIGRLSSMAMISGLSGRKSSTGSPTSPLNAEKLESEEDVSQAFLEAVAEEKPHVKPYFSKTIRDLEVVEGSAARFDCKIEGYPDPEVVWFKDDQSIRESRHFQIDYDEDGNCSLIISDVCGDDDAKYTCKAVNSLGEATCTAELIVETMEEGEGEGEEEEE

[27] = Drug uptake in C57BL/6J mouse plasma at 10 mg/kg, po incubated for 3 hrs by LC-MS/MS analysis; assay type: ADME, organism-based
[28] = Half life in Sprague-Dawley rat at 1 mg/kg, iv or 3 mg/kg, po by HPLC analysis; assay type: ADME, organism-based; settings: in vivo
[29] = Drug uptake in C57BL/6J mouse plasma at 3 mg/kg, po incubated for 3 hrs by LC-MS/MS analysis; assay type: ADME, organism-based
[30] = molecular target: DNA-dependent protein kinase catalytic subunit (Homo sapiens, UniProt P78527); experiment: Inhibition of DNAPK (unknown origin)
[31] = Selectivity index, ratio of IC50 for ATM (unknown origin) to IC50 for inhibition of mTOR in mouse MEF cells harboring TSC1 deletion mutant; assay type: cell-based
[32] = molecular target: Serine/threonine-protein kinase mTOR (Rattus norvegicus, UniProt P42346, L2427P); experiment: Inhibition of mTOR L2427P mutant in rat primary cortical neuron assessed as reduction in PS6 phosphorylation incubated for 4 hrs by Western blot analysis (reference value: 19 nM)
[33] = Ratio of drug concentration in brain to plasma in Sprague-Dawley rat at 3 mg/kg, po incubated for 24 hrs by LC-MS/MS analysis; assay type: ADME, organism-based; settings: read-out: BPR
[34] = Ratio of drug concentration in brain to plasma in C57BL/6 mouse at 1 mg/kg, iv incubated for 2 hrs by LC-MS/MS analysis; assay type: ADME, organism-based; settings: read-out: BPR
[35] = molecular target: 3',5'-cyclic-AMP phosphodiesterase 4D (Homo sapiens, UniProt Q08499); experiment: Inhibition of PDE4D (unknown origin)
Sequence of 3',5'-cyclic-AMP phosphodiesterase 4D (Q08499 whole entry): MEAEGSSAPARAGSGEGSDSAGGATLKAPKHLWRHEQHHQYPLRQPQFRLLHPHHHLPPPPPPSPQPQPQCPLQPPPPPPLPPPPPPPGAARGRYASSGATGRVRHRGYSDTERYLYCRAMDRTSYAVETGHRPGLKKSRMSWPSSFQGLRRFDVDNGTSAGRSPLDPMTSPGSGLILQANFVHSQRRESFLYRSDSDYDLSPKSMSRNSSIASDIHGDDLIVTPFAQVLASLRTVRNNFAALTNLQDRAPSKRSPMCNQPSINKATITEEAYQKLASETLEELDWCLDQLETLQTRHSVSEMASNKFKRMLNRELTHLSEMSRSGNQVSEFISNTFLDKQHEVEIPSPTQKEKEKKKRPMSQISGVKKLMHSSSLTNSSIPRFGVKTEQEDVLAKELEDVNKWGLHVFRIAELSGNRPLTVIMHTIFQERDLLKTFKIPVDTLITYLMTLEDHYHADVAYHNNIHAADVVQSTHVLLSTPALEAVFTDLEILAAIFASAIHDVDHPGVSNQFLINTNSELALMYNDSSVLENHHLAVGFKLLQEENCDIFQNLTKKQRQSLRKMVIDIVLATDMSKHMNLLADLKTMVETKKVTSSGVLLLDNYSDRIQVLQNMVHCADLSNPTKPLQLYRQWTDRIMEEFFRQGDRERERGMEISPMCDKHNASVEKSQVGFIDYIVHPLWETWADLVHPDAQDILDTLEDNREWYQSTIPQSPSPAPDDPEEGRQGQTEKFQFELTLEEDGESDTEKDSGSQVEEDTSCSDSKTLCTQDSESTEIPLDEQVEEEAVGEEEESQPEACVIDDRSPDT

## C[C@@H]1COCCN1c1nc(N2CCOC[C@@H]2C)nc2sc(-c3cc[nH]n3)nc12
[1]
  Ratio IC50: 230
[2]
  IC50: 17 nM
[3]
  IC50: 22 nM
Cortical neurone
  IC50: 30 nM
Mus musculus [4]
  Activity: 95%
[5]
  IC50: 20 nM
[6]
  inhibition: Active
[7]
  IC50: 5.6 nM
[8]
  fraction unbound at 4 h, 5 µM: < 0.01
Mus musculus [9]
  Activity: 84%
[10]
  Cmax: 2700 nM
[11]
  Kp at 3 h: 1.3
Cytochrome P450 2C9
  IC50: > 50000 nM
[12]
  fraction unbound at 4 h, 5 µM: 0.012
[13]
  concentration at 3 h: 929 nM
MDR1
  efflux ratio: 0.93
[14]
  Tmax: 1.3 h
[15]
  Vd: 2.6 L/kg
[16]
  Kp at 3 h: 1.1
[17]
  solubility: 120 µg/mL (≈ 299 µM)
[18]
  bioavailability: 81%
[19]
  IC50: 2200 nM
[20]
  Cmax: 1120 nM
[21]
  MRT last: 2.6 h
[22]
  clearance: 6.5 mL/min/kg
[23]
  AUC(0-t): 14.9 µM·h
[24]
  IC50: 394 nM
Mus musculus [25]
  inhibition: Active
[26]
  inhibition: Active
[27]
  concentration at 3 h: 4470 nM
[28]
  half-life: 3.7 h
[29]
  concentration at 3 h: 2210 nM
[30]
  IC50: 1290 nM
[31]
  Ratio IC50: 3570
[32]
  IC50: 24 nM
[33]
  Kp at 24 h: 3.1
[34]
  Kp at 2 h: 1.2
[35]
  IC50: 210 nM
